Legend:
Plasmodium berghei [1] = assay: Antimalarial activity against liver stages of Plasmodium berghei […] infected in human Hepa1-6 cells assessed as reduction in liver parasite load at 10 uM/L incubated for 1 hr prior to sporozoite inoculation measured after 46 to 48 hrs by fluorescence microscope; assay type: functional; parameters: scale not given: the % may be the effect or the level left
Plasmodium yoelii [2] = assay: Antimalarial activity against Plasmodium yoelii infected in mouse assessed as protection against parasitic infection at 160 mg/kg, po; assay type: functional
Plasmodium yoelii [3] = assay: Antimalarial activity against Plasmodium yoelii infected in mouse assessed as protection against parasitic infection at 5 mg/kg, po; assay type: functional
Plasmodium yoelii [4] = assay: Antimalarial activity against liver stages of Plasmodium yoelii; assay type: functional, organism-based
Plasmodium yoelii yoelii [5] = assay: Antimalarial activity against liver stages of Plasmodium yoelii yoelii in mouse hepatocytes assessed as growth inhibition; assay type: functional, organism-based; details: Hepatocyte
Plasmodium yoelii [6] = assay: Antimalarial activity against Plasmodium yoelii infected in po dosed mouse assessed as minimum dose required to protection against 100% parasitic infection; assay type: functional; details: read-out: MED
Plasmodium berghei [7] = assay: Antimalarial activity against Plasmodium berghei ANKA infected in human Huh7 cells after 24 hrs by qRT-PCR; assay type: functional, organism-based; details: Huh-7, 24 h
Plasmodium berghei [8] = assay: Antimalarial activity against Plasmodium berghei ANKA infected in C57BL/6 mouse assessed as increase in resistance of mouse to cerebral malaria at 10 mg/kg, ip; assay type: functional; details: route intraperitoneal
Plasmodium berghei [9] = assay: Antimalarial activity against Plasmodium berghei infected in […] 1-6 cells assessed as inhibition of host cell sporozoite invasion at 10 uM preincubated for 10 mins measured after 1 hr; assay type: functional; details: Hepa1-6
Plasmodium berghei [10] = assay: Antimalarial activity against liver stages of Plasmodium berghei assessed as human HepG2 cells assessed as inhibition of hepatic parasite growth after invasion of hepatocytes incubated for 48 hrs followed by compound wash out measured after 2 days by RT-PCR analysis; assay type: functional, organism-based
Plasmodium yoelii [11] = assay: Antimalarial activity against liver stages of Plasmodium yoelii 17XNL expressing GFP infected in human HepG2 cells transfected with CD81 assessed as growth inhibition of hepatic parasite after 40 hrs by flow cytometry; assay type: functional, organism-based
Plasmodium berghei [12] = assay: Antimalarial activity against liver stages of Plasmodium berghei infected in human HepG2 cells assessed as growth inhibition of hepatic parasite before invasion of hepatocytes incubated for 48 hrs followed by compound wash out measured after 3 days by RT-PCR analysis; assay type: functional, organism-based
Plasmodium berghei [13] = assay: Antimalarial activity against liver stages of Plasmodium berghei assessed as inhibition of cytochrome bc1 complex; assay type: functional, organism-based
Plasmodium berghei [14] = assay: Antimalarial activity against liver stages of Plasmodium berghei in human HepG2 cells assessed as inhibition of exoerythrocytic development at 1.85 nM administered 3 hrs after sporozite invasion measured after 48 hrs; assay type: functional
Plasmodium falciparum [15] = assay: Antimalarial activity against liver stages of Plasmodium falciparum NF54 infected in human HepG2-A16 cells expressing CD81 assessed as growth inhibition of hepatic parasite after 5 days by fluorescence microscopy; assay type: functional, organism-based; details: NF54, HepG2A16, Liver, 120 h
Plasmodium yoelii [16] = assay: Antimalarial activity against Plasmodium yoelii infected in CD-1 mouse assessed as efficacy at 160 mg/kg, po after 2 hrs; assay type: functional
Plasmodium yoelii [17] = assay: Antimalarial activity against Plasmodium yoelii infected in CD-1 mouse assessed as efficacy at 40 mg/kg, ip; assay type: functional; details: route intraperitoneal
Plasmodium vivax = assay: Antimalarial activity against Plasmodium vivax assessed as effect on cure rate after 28 days; assay type: functional
Plasmodium yoelii [18] = assay: Antimalarial activity against Plasmodium yoelii infected in CD-1 mouse assessed as efficacy at 40 mg/kg, po after 2 hrs; assay type: functional
Plasmodium yoelii [19] = assay: Antimalarial activity against Plasmodium yoelii infected in CD-1 mouse assessed as efficacy at 160 mg/kg, ip; assay type: functional; details: route intraperitoneal
Plasmodium yoelii [20] = assay: Antimalarial activity against liver stages of Plasmodium yoelii assessed as inhibition of cytochrome bc1 complex; assay type: functional, organism-based
Plasmodium yoelii [21] = assay: Antimalarial activity against liver stages of Plasmodium yoelii infected in mouse assessed as protection against parasitic infection at 50 mg/kg, po after 7 days; assay type: functional
Plasmodium falciparum [22] = assay: Antimalarial activity against liver stages of Plasmodium falciparum after 96 hrs; assay type: functional, organism-based
Plasmodium yoelii [23] = assay: Antimalarial activity against liver stages of Plasmodium yoelii after 96 hrs; assay type: functional, organism-based; details: for IC50: Plasmodium yoelii, 96 h
Plasmodium yoelii [24] = assay: Antimalarial activity against liver stages of Plasmodium yoelii after 96 hrs
Plasmodium berghei [25] = assay: Antimalarial activity against liver stages of Plasmodium berghei; assay type: functional, organism-based
Plasmodium berghei [26] = assay: Antimalarial activity against Plasmodium berghei ANKA expressing GFP infected in C57BL/6 mouse assessed as reduction of liver infection at 200 mg/kg, po incubated for 6 hrs prior to sporozoite inoculation measured after 40 hrs by qRT PCR; parameters: scale not given: the % may be the effect or the level left
Plasmodium falciparum [27] = assay: Antimalarial activity against liver stages of Plasmodium falciparum NF54 in mouse after 72 to 120 hrs by immunofluorescence assay; assay type: functional, organism-based
Plasmodium yoelii yoelii [28] = assay: Antimalarial activity against liver stages of Plasmodium yoelii yoelii 265 BY infected in mouse after 48 hrs by immunofluorescence assay; assay type: functional, organism-based
Plasmodium yoelii [29] = assay: Antimalarial activity against liver stages of Plasmodium yoelii 17XNL infected in Swiss Webster mouse assessed as reduction in liver parasite load at 25 mg/kg, po co-administered with 12.5 mg/kg ritonavir incubated for 6 hrs prior to sporozoite inoculation measured after 18 hrs; assay type: functional; parameters: scale not given: the % may be the effect or the level left
Plasmodium yoelii [30] = assay: Antimalarial activity against liver stages of Plasmodium yoelii 17XNL infected in Swiss Webster mouse assessed as reduction in liver parasite load at 100 mg/kg, po co-administered with 50 mg/kg ritonavir incubated for 6 hrs prior to sporozoite inoculation measured after 18 hrs; assay type: functional; parameters: scale not given: the % may be the effect or the level left
Plasmodium cynomolgi = assay: Antimalarial activity against liver stages of Plasmodium cynomolgi infected in human HepG2 cells assessed as growth inhibition of hepatic parasite after 3 days; assay type: functional, organism-based; details: 72 h
Plasmodium falciparum [31] = assay: Antimalarial activity against liver stages of Plasmodium falciparum NF54 infected in human hepatocytes assessed as growth inhibition of hepatic parasite after 5 days by fluorescence microscopy; assay type: functional, organism-based; details: NF54, Hepatocyte, 120 h

CC(C)(C)NC(=O)[C@@H]1C[C@@H]2CCCC[C@@H]2CN1C[C@@H](O)[C@H](Cc1ccccc1)NC(=O)[C@H](CC(N)=O)NC(=O)c1ccc2ccccc2n1
Activity (Plasmodium berghei [1]): 55%

CC(C)N1C(=O)C(=O)N=C1N/C(=N\C(=O)OC(C)(C)C)Nc1ccc(Cl)c(Cl)c1
Activity (Plasmodium yoelii [2]): 100%

CC(C)COC(=O)N/C(=N/C(C)C)NC1=NC(=O)C(=O)N1c1ccc(Cl)c(Cl)c1
Activity (Plasmodium yoelii [3]): 100%

CCOC(=O)/N=C(\NC1=NC(=O)C(=O)N1C(C)C)Nc1ccc(Cl)c(Cl)c1
Activity (Plasmodium yoelii [2]): 100%

CN1CNC(=O)N[C@H](Cc2ccccc2)C1=O
IC50 (Plasmodium yoelii [4]): > 200 µM

CN1CN(Cc2ccccc2)C(=O)N[C@@H](Cc2ccccc2)C1=O
IC50 (Plasmodium yoelii [4]): > 200 µM

NCCCCN(CCCN)C(=O)CCCCCCCCCCCOCc1ccc2c(c1)[C@@H]1C[C@]3(CCCCO3)NC3=N[C@]4(CCCCO4)C[C@H]2N31
IC50 (Plasmodium yoelii yoelii [5]): 9.2 µM

CC(C)COC(=O)/N=C(\NC1=NC(=O)C(=O)N1C(C)C)Nc1ccc(Cl)c(Cl)c1
minimal effective dose (Plasmodium yoelii [6]): 40 mg/kg | Activity (Plasmodium yoelii [2]): 100%

C[C@H](NC(=O)[C@@H](O)c1cc(F)cc(F)c1)C(=O)N[C@@H]1C(=O)N(C)c2ccccc2-c2ccccc21
IC50 (Plasmodium berghei [7]): 80 µM | Activity (Plasmodium berghei [8]): 55%

C=CCS[S+]([O-])CC=C (stereo not drawn) [ALLICIN]
inhibition at 10 µM (Plasmodium berghei [9]): 37% | IC50 (Plasmodium berghei [10]): 39.4 µM | IC50 (Plasmodium yoelii [11]): 40 µM | IC50 (Plasmodium berghei [12]): 6.8 µM

O=C1C(O)=C([C@H]2CC[C@H](c3ccc(Cl)cc3)CC2)C(=O)c2ccccc21 [ATOVAQUONE]
IC50 (Plasmodium berghei [13]): 0.0197 µM | inhibition in vivo at 0.00185 µM (Plasmodium berghei [14]): 50% | IC50 (Plasmodium falciparum [15]): 0.00395 µM

CC[C@H]1OC(=O)[C@H](C)[C@@H](O[C@H]2C[C@@](C)(OC)[C@@H](O)[C@H](C)O2)[C@H](C)[C@@H](O[C@@H]2O[C@H](C)C[C@H](N(C)C)[C@H]2O)[C@](C)(O)C[C@@H](C)CN(C)[C@H](C)[C@@H](O)[C@]1(C)O [AZITHROMYCIN]
Efficacy (Plasmodium yoelii [16]): 100% | Efficacy (Plasmodium yoelii [17]): 80% | Activity (Plasmodium vivax): 58% | Efficacy (Plasmodium yoelii [18]): 40% | Efficacy (Plasmodium yoelii [19]): 100%

CCCCCCCCCCOc1cc2c(O)c(C(=O)OCC)cnc2cc1OCC [DECOQUINATE]
IC50 (Plasmodium yoelii [20]): 0.000177 µM | Activity (Plasmodium yoelii [21]): 80%

CC(=O)N(O)CCCCCNC(=O)CCC(=O)N(O)CCCCCNC(=O)CCC(=O)N(O)CCCCCN [DEFEROXAMINE]
IC50 (Plasmodium falciparum [22]): 3.4 µM | IC50 (Plasmodium yoelii [23]): 20 µM

C[C@]1(C(=O)O)CSC(c2ncccc2O)=N1 [DESFERRITHIOCIN]
IC50 (Plasmodium falciparum [22]): 2.9 µM | IC50 (Plasmodium yoelii [23]): 10 µM

C[C@@H](CN1CC(=O)NC(=O)C1)N1CC(=O)NC(=O)C1 [DEXRAZOXANE]
INH (Plasmodium yoelii [24]): 50 µM | INH (Plasmodium yoelii [23]): 50 µM

C[C@H]1c2cccc(O)c2C(=O)C2=C(O)[C@]3(O)C(=O)C(C(N)=O)=C(O)[C@@H](N(C)C)[C@@H]3[C@@H](O)[C@@H]21.O [DOXYCYCLINE]
Efficacy (Plasmodium yoelii [17]): 40% | Activity (Plasmodium vivax): 56% | Efficacy (Plasmodium yoelii [19]): 100%

O=c1c(-c2ccc(O)cc2)coc2cc(O)cc(O)c12 [GENISTEIN]
IC50 (Plasmodium berghei [25]): 20 µM | Activity (Plasmodium berghei [26]): 64%

Cc1c(F)c(N2CCNC(C)C2)cc2c1c(=O)c(C(=O)O)cn2C1CC1 (stereo not drawn) [GREPAFLOXACIN]
IC50 (Plasmodium falciparum [27]): 10 µM | IC50 (Plasmodium yoelii yoelii [28]): 10 µM

Cc1cccc(C)c1OCC(=O)N[C@@H](Cc1ccccc1)[C@@H](O)C[C@H](Cc1ccccc1)NC(=O)[C@H](C(C)C)N1CCCNC1=O [LOPINAVIR]
Activity (Plasmodium yoelii [29]): 45% | Activity (Plasmodium yoelii [30]): 93% | Activity (Plasmodium berghei [1]): 38%

CCc1nc(N)nc(N)c1-c1ccc(Cl)cc1 [PYRIMETHAMINE]
IC50 (Plasmodium cynomolgi): 1.03 µM

COC1=C2[C@H]3NCC[C@]2(C[C@H](O)[C@@H]1O)c1c(ccc(OC)c1O)[C@H]3O [TAZOPSINE]
IC50 (Plasmodium falciparum [31]): 4.2 µM

— ChEMBL document CHEMBL2086285, “Targeting the liver stage of malaria parasites: a yet unmet goal” (J Med Chem, 2012)
